According to patent US20230172923A1, “METHODS OF TREATING CYTOKINE-RELATED ADVERSE EVENTS” (BRISTOL-MYERS SQUIBB COMPANY, priority 2020, published 2023):

Tests used:
Format in all cases: cell-based, human
GM-CSF = experiment: LPS-stimulated PBMC cytokine production, multiplex cytokine analysis: GM-CSF; settings: Homo sapiens, PBMC, PBMC 2×10^6 cells/ml, compound 1 hour, then 1 ng/ml LPS 18 hours
Experimental: (§1) Peripheral blood mononuclear cells (PBMCs) were isolated from the blood of healthy human donors by Ficoll cell separation. […] Supernatant samples were subjected to multiplex cytokine analysis (Luminex IS100 instrument) to quantify secreted levels of IL-6, IL-8, IL1-beta (IL-1β), GM-CSF, MDC, MIP-1alpha (MIP-1α), MIP-1beta (MIP-1β) and TNF-alpha (TNF-α) (see e.g. FIGS. 7A-C). IC50 (half maximal inhibitory concentration) values were calculated to measure the potency of each IMiD compound in inhibiting LPS-stimulated secretion of each cytokine (see Table 25).

MIP-1α = experiment: LPS-stimulated PBMC cytokine production, multiplex cytokine analysis: MIP-1α; settings: Homo sapiens, PBMC, PBMC 2×10^6 cells/ml, compound 1 hour, then 1 ng/ml LPS 18 hours
Experimental: (§2) Peripheral blood mononuclear cells (PBMCs) were isolated from the blood of healthy human donors by Ficoll cell separation. The PBMCs were seeded at a concentration of 2×10^6 cells/ml and treated for 1 hour at 37° C. with various concentrations of IMiD compounds or control DMSO (0.25%), before stimulation with 1 ng/ml LPS for 18 hours at 37° C.
(§3) Supernatant samples were subjected to multiplex cytokine analysis (Luminex IS100 instrument) to quantify secreted levels of IL-6, IL-8, IL1-beta (IL-1β), GM-CSF, MDC, MIP-1alpha (MIP-1α), MIP-1beta (MIP-1β) and TNF-alpha (TNF-α) (see e.g. FIGS. 7A-C).
(§4) IC50 (half maximal inhibitory concentration) values were calculated to measure the potency of each IMiD compound in inhibiting LPS-stimulated secretion of each cytokine (see Table 25).

MIP-1β = experiment: LPS-stimulated PBMC cytokine production, multiplex cytokine analysis: MIP-1β; settings: Homo sapiens; PBMC 2×10^6 cells/ml, compound 1 hour, then 1 ng/ml LPS 18 hours
Experimental: as §1

TNF-α = experiment: LPS-stimulated PBMC cytokine production, multiplex cytokine analysis: TNF-α; settings: Homo sapiens, PBMC, PBMC 2×10^6 cells/ml, compound 1 hour, then 1 ng/ml LPS 18 hours
Experimental: as §2, §3, §4

[1] = system: IL-6, IL-8, IL-1β, GM-CSF, MDC, MIP-1α, MIP-1β and TNF-α; experiment: LPS-induced secretion of proinflammatory cytokines from PBMCs (whole multiplex panel, result in words); settings: pre-treatment 1 hour, 1 ng/ml LPS 18 hours
Experimental: Peripheral blood mononuclear cells (PBMCs) from healthy volunteers were seeded at a concentration of 2×10^6 cells/ml and treated with the indicated concentrations of IMiD compounds or control DMSO (0.25%) for 1 hour, before stimulation with 1 ng/ml LPS. After 18 hours, proinflammatory cytokine levels in the supernatant were assessed by multiplex cytokine analysis.
as §2, §3

IL-6 [2] = experiment: LPS-induced IL-6 secretion from isolated monocytes (MSD); settings: overnight (~17 hours) 1000 nM lenalidomide, 100 nM pomalidomide, 10 nM iberdomide or 1 nM Compound 1; LPS 4 hours
Experimental: Monocytes from healthy volunteers were seeded at a concentration of 1×10^6 cells/ml and treated with the indicated concentration of IMiD/CELMoD agents overnight (~17 hours). The next morning, the monocytes were incubated with the indicated concentration of LPS for 4 hours, before IL-6 levels in the supernatant were assessed using an MSD assay.
eripheral blood mononuclear cells (PBMCs) were isolated from the blood of four healthy human donors by Ficoll cell separation, and then monocytes were isolated from these PBMCs by negative selection. The enriched monocytes were seeded at a concentration of 1×10^6 cells/ml and incubated overnight (~17 hours) with 1000 nM lenalidomide, 100 nM pomalidomide, 10 nM iberdomide or 1 nM Compound 1, or control DMSO (0.001%), before stimulation with various concentrations of LPS for IL-6 secretion.
After 4 hours, the cell culture was spun down at 300 g for 5 minutes to remove cells, and the supernatant was subjected to Meso Scale Discovery (MSD) analysis to quantify secreted IL-6.

IL-6 [3] = experiment: LPS-induced IL-6 secretion from isolated macrophages (M0) (MSD); settings: overnight (~17 hours) 1000 nM lenalidomide, 100 nM pomalidomide, 10 nM iberdomide or 1 nM Compound 1; then LPS
Experimental: Monocytes from healthy volunteers were seeded at a concentration of 3×10^5 cells/ml for 4 days with RPMI 1640 media containing M-CSF (50 ng/mL) (50% media replaced after 2 days) to obtain naive macrophages (M0). At the end of day 4, macrophages were treated with the indicated concentration of IMiD/CELMoD agents overnight (~17 hours). The next morning, the macrophages were stimulated with the indicated concentration of LPS for 8 hours, before IL-6 levels in the supernatant were assessed using an MSD assay.
Peripheral blood mononuclear cells (PBMCs) were isolated from the blood of two healthy human donors by Ficoll cell separation, and then monocytes were isolated from these PBMCs by positive selection using MACS […] magnetic microbeads. The isolated monocytes were seeded at a concentration of 3×10^5 cells/ml and incubated for 4 days with RPMI 1640 media containing M-CSF (50 ng/mL) (50% media replaced after 2 days) to obtain naive macrophages (M0). At the end of day 4, the macrophages were incubated overnight (~17 hours) with 1000 nM lenalidomide, 100 nM pomalidomide, 10 nM iberdomide or 1 nM Compound 1, or control DMSO (0.001%), before stimulation with various concentrations of LPS for IL-6 secretion.
After 6 hours, the cell culture was spun down at 300 g for 5 minutes to remove cells, and the supernatant was subjected to MSD analysis to quantify secreted IL-6.

TNF-alpha = experiment: LPS-induced TNF-alpha secretion from PBMCs, overnight pre-treatment (MSD); settings: overnight 1000 nM lenalidomide, 100 nM pomalidomide, 10 nM iberdomide or 1 nM Compound 1; LPS 24 hours
Experimental: Fresh PBMCs isolated from healthy volunteers were seeded at a concentration of 1×10^6 cells/ml and treated with the indicated concentration of IMiD drugs/CELMoD agents or DMSO overnight before stimulation with the indicated concentration of LPS. After 24 hours, the cell culture media was collected and IL-6, TNF-alpha and IL1-beta levels in the supernatant were assessed using an MSD assay. ULOQ = Upper limit of quantification.
Fresh peripheral blood mononuclear cells (PBMCs) were isolated from the blood (buffy coat) of healthy human volunteers by Ficoll based cell separation. The isolated PBMCs were seeded at a concentration of 1×10^6 cells/ml and treated with 1000 nM lenalidomide, 100 nM pomalidomide, 10 nM iberdomide, 1 nM Compound 1 (CC-92480) or control DMSO, overnight (~17 hours). The next morning, the PBMCs were stimulated with various concentrations of LPS (Lipopolysaccharides from Escherichia coli O111:B4).
After 24 hours, the cell culture media was collected from the control and stimulated cells, spun down at 300 g for 5 minutes to remove cells and the supernatant was subjected to cytokine analysis to quantify secreted levels of IL-6, TNF-alpha (TNF-α) and IL1-beta (IL-1β) using an MSD assay (see e.g. FIGS. 8A-C).

| Compound | IC50 (GM-CSF) | IC50 (MIP-1α) | IC50 (MIP-1β) | IC50 (TNF-α) | LPS-induced secretion of proinflammatory cytokines from PBMCs (effect in words) [1] | LPS-induced IL-6 secretion from monocytes (IL-6 [2]) | LPS-induced IL-6 secretion from macrophages (IL-6 [3]) | LPS-induced secretion of TNF-α from PBMCs (TNF-alpha) |
| --- | --- | --- | --- | --- | --- | --- | --- | --- |
| Nc1cccc2c1CN(C1CCC(=O)NC1=O)C2=O (stereo not drawn) [Lenalidomide, 3-(4-amino-1-oxo-2,3-dihydro-1H-isoindol-2-yl) piperidine-2,6-dione] | > 10 µM | > 10 µM | > 10 µM | 0.22 µM | inhibited | diminished | diminished | reduces |
| Nc1cccc2c1C(=O)N(C1CCC(=O)NC1=O)C2=O (stereo not drawn) [Pomalidomide, 4-amino-2-(2,6-dioxopiperidine-3-yl)isoindoline-1,3-dione] | 1.5 µM | 0.23 µM | > 10 µM | 0.033 µM | inhibited | diminished | diminished | reduces |
| O=C1CC[C@H](N2Cc3c(OCc4ccc(CN5CCOCC5)cc4)cccc3C2=O)C(=O)N1 [Iberdomide, (S)-3-(4-((4-(morpholinomethyl)benzyl)oxy)-1-oxoisoindolin-2-yl)piperidine-2,6-dione] | 0.0022 µM | 0.028 µM | > 10 µM | 0.00059 µM | inhibited | diminished | diminished | reduces |
| N#Cc1ccc(N2CCN(Cc3ccc(COc4cccc5c4CN(C4CCC(=O)NC4=O)C5=O)cc3)CC2)c(F)c1 (stereo not drawn) [Compound 1, 4-(4-(4-(((2-(2,6-dioxopiperidin-3-yl)-1-oxoisoindolin-4-yl)oxy)methyl)benzyl)piperazin-l-yl)-3-fluorobenzonitrile] |  |  |  |  |  | diminished | diminished | reduces |
